The source of these data is patent publication US9682961B2, “Quinazoline derivative” (CARNA BIOSCIENCES, INC., priority 2013, dated 2017).

In one assay the test system is AXIN2 gene expression. Put plainly: Expression level of Wnt/β-catenin target gene AXIN2 by real-time PCR in HCT116 cells. The class given is cell-based, human. As to conditions: 10 and 3 μM, 24 hours. How it is done:
Effects of the compound of the present invention on Wnt/β-catenin signaling activity were studied using the real-time PCR method as well as using as an indicator changes in expression levels of target genes of the Wnt/β-catenin signaling pathway. To a RPMI 1640 medium (NACALAI TESQUE, INC.), 10% FBS (AusGeneX PTY LTD.) and 1% Penicillin/Streptomycin (NACALAI TESQUE, INC.) were added to prepare a cell culture medium (hereinafter referred to as medium 1). In a T75 flask, HCT116 cells (ATCC No. CCL-247) were added to the medium 1. The cells in the flask were cultured in the 5% CO2 incubator. The cultured HCT116 cells were diluted with the medium 1 so as to have a cell concentration of 1.1×10^5 cells/mL. Into the T75 flask, 13.5 mL of the diluted cells was seeded, followed by culturing overnight in the 5% CO2 incubator. […] Total RNA concentration was measured by a microspectrophotometer (Thermo Fisher Scientific Inc., Nano Drop ND-1000). […] The results were calculated as the expression ratio of the target gene to the endogenous control gene (β-Actin) by the comparative Ct method using a DMSO group as a reference.
For orientation: Real-time PCR tracks product formation cycle by cycle.

In assay [1] the test system is human-derived colorectal cancer cell line HCT116. The assay is described as follows: Antitumor effects in mice model subcutaneously transplanted with human-derived cancer cell line. The assay is classed as in vivo. As to conditions: oral, twice a day for 14 days, HCT116 nude mice. How it is done:
The antitumor effects of the compound of the present invention were studied using nude mice subcutaneously transplanted with a human-derived colorectal cancer cell line HCT116, in which the Wnt signaling pathway was constantly activated.
HCT116 cells cultured in the same manner as in Test Example 2 were adjusted with D-PBS (NACALAI TESQUE, INC.) so as to have a cell concentration of 7.5×10^7/mL, and the cell suspension was ice cooled in a 15 mL tube. To the cell suspension, Matrigel (BD Biosciences Co.) was added in an amount of one-fourth of the cell suspension to prepare a preparation for cell transplantation. Into the back of BALB/c Slc-nu/nu mice (female, 8 weeks old, Japan SLC, Inc.), 0.1 mL of the preparation for cell transplantation was subcutaneously injected. […]
To the respective mice transplanted with cancer cells (nine in each group), forced oral administration of doses of the substance to be tested calculated from their body weights was performed twice a day (at intervals of six hours or more) for 14 days in total. Tumor volumes of the respective mice were calculated using the following formulas, and the antitumor effects were evaluated using a relative tumor volume ratio as an indicator.

Take `O[C@H]1CC[C@@H](Oc2cccc3cnc(Nc4ccc5nc[nH]c5c4)nc23)CC1` [Example 1, cis-4-({2-[(1H-benzo[d]imidazol-6-yl)amino]quinazolyn-8-yl}oxy)cyclohexanol]: the AXIN2 gene expression entry with AXIN2 gene expression is “inhibited the expression of AXIN2 and c-MYC”. Further, the “Tumor growth inhibition rate (TGI) on the last administration day” value was 42% in assay [1] (40 mg/kg) and 70% in assay [1] (80 mg/kg).
